Where two headings read alike, the source gives them in different places.
Tests used:
sporadic PD lymphoblasts = assay: Centrosomal cohesion deficit in lymphoblasts from sporadic PD patients (immunofluorescence, confocal imaging); type: cell-based, human; details: subset of sporadic PD patients with deficit (not G2019S carriers); short-term application of 10 nM MLi2; Figures 4A to 4D
Description: Peripheral blood mononuclear cells (PBMCs) were collected and processed according to manufacturer's instructions, and lymphocytes were immortalized by infection with Epstein-Barr virus (EBV) as described. Briefly, cell lines were established from freshly isolated or cryopreserved lymphocytes using standard EBV transformation protocols which include cell separation by gradient centrifugation and lymphocyte growth enhancement by 1% (v/v) of the mitogenic phytohemagglutinin-M (PHA-M, ThermoFisher Scientific, 10576015). Cell lines were maintained in RPMI 1640 medium supplemented with 20 % fetal bovine serum, 2 % L-glutamine, 20 units/mL penicillin and 20 µg/ml streptomycin in T75 flasks in 5 % CO2 at 37 °C. Cells were maintained at a density of 10^6 cells/mL, with cell density monitored every other day using trypan blue staining. […]
Images were acquired on a Leica TCS-SP5 confocal microscope using a 63X 1.4 NA oil UV objective (HCX PLAPO CS). […] Around 30 image sections of selected areas were acquired with a step size of 0.5 µm, and z-stack images analyzed and processed using Leica Applied Systems (LAS AF6000) image acquisition software. The same laser intensity settings, exposure times and zoom were used for image acquisition of individual experiments to be quantified.

[1] = test system: lymphoblasts from G2019S LRRK2 PD patients; details: for reversal of the cohesion deficit: five G2019S LRRK2 PD patients, dose-response; for Centrosomal cohesion deficits: three lymphoblast lines from G2019S LRRK2 PD patients, short-term application of LRRK2 kinase inhibitor, Figure 1A
Description: Peripheral blood mononuclear cells (PBMCs) were collected and processed according to manufacturer's instructions, and lymphocytes were immortalized by infection with Epstein-Barr virus (EBV) as described. Briefly, cell lines were established from freshly isolated or cryopreserved lymphocytes using standard EBV transformation protocols which include cell separation by gradient centrifugation and lymphocyte growth enhancement by 1% (v/v) of the mitogenic phytohemagglutinin-M (PHA-M, ThermoFisher Scientific, 10576015). Cell lines were maintained in RPMI 1640 medium supplemented with 20 % fetal bovine serum, 2 % L-glutamine, 20 units/mL penicillin and 20 µg/ml streptomycin in T75 flasks in 5 % CO2 at 37 °C. Cells were maintained at a density of 10^6 cells/mL, with cell density monitored every other day using trypan blue staining.
Coverslips (13 mm diameter) were placed into 24-well plates and coated with Cell-Tak Cell and Tissue Adhesive solution (Corning, nr. 354240) according to manufacturer's instructions. After 20 minutes incubation at room temperature, the solution was removed, and coverslips were rinsed twice with distilled water followed by air-drying. Lymphoblast cells (200,000/well) were added to dry coated coverslips, and cells attached by slight centrifugation at 690 g for 10 minutes at room temperature (without brake). Cells were fixed with 2 % paraformaldehyde (PFA) in phosphate-buffered saline (PBS) for 20 minutes at room temperature, followed by 5 min of ice-cold methanol fixation before permeabilization with 0.2% Triton-X100/PBS for 20 min. After blocking for 1 hour in 0.5% BSA (w/v) in 0.2% Triton-X100/PBS (blocking buffer), cells were incubated with primary antibodies overnight at 4 °C in blocking buffer. Primary antibodies included mouse monoclonal anti-γ-tubulin (1:1000; Abcam ab11316), rabbit polyclonal anti-pericentrin (1:1000; Abcam ab4448) or rabbit monoclonal anti-phospho-Rab10 (1:100; Abcam ab237703). The following day, coverslips were washed three times 10 minutes in 0.2% Triton-X100/PBS, followed by incubation with secondary antibodies (Alexa488-conjugated goat anti-mouse (1:1000; Invitrogen) and Alexa594-conjugated goat anti-rabbit (1:1000; Invitrogen)) in blocking buffer for 1 hour. Coverslips were washed three times in 0.2% Triton-X100/PBS, rinsed in PBS and mounted in mounting medium with DAPI (Vector Laboratories). For staining with the anti-phospho-Rab10 antibody, the methanol fixation was omitted, and 0.2% Triton-X100 was replaced by 0.1% saponin throughout. For treatment of cells with MLi2, cells were seeded on coated coverslips as described above, and incubated with or without MLi2 (generous gift of D. Alessi, University of Dundee, UK) (or DMSO as control) at the indicated concentrations for two hours at 37 °C, before attachment by slight centrifugation followed by fixation as described above.
Images were acquired on a Leica TCS-SP5 confocal microscope using a 63X 1.4 NA oil UV objective (HCX PLAPO CS). Images were collected using single excitation for each wavelength separately, and dependent on secondary antibodies (488 nm Argon Laser line and a 498-551 nm emission band pass; 543 HeNe laser line and a 615-671 nm emission band pass; 405 nm UV diode and a 418-467 nm emission band pass). Around 30 image sections of selected areas were acquired with a step size of 0.5 µm, and z-stack images analyzed and processed using Leica Applied Systems (LAS AF6000) image acquisition software. The same laser intensity settings, exposure times and zoom were used for image acquisition of individual experiments to be quantified.

Structure (SMILES)	Centrosomal cohesion deficits (sporadic PD lymphoblasts)	reversal of the cohesion deficit ([1]; 1 nM MLi2, Figures 3A and 3B)	reversal of the cohesion deficit ([1]; 10 nM MLi2, Figures 3A and 3B)	Centrosomal deficits in all G2019S LRRK2 PD samples ([1]; larger sampling, individual samples, Figure 4C)	centrosomal alterations ([1]; larger sampling, short-term application of 10 nM MLi2, Figures 4A and 4B)	Centrosomal cohesion deficits [1]	centrosomal cohesion deficits upon removal of kinase inhibitor ([1]; washout of inhibitor, G2019S LRRK2 PD samples, Figures 3A and 3B)
CC1CN(c2cc(-c3n[nH]c4ccc(OC5(C)CC5)cc34)ncn2)CC(C)O1 (centres unmarked) [MLi2, 3-(4-Pyrimidinyl) Indazole]	reverted	significant reversal	complete reversal	reverted by MLi2 in all cases	reverted	could be reversed	reverted back to the ones observed in the absence of inhibitor
O=C(Nc1cccnc1)c1cc(-c2ccnc(F)c2)ccc1OCc1ccccc1 [GSK2578215A, 2-(benzyloxy)-5-(2-fluoropyridin-4-yl)-N-(pyridin-3-yl)benzamide]						could be reversed	

Reference: patent publication EP3769768A1, “COMPOUNDS USEFUL FOR THE TREATMENT OF PARKINSON S DISEASE” (priority 2019, dated 2021)
